Assay: TEAC assay (trolox equivalent antioxidant activity assay)
Settings: absorption at 734 nm measured after 6 minutes; relative to trolox = 1.0
Method: • a) The basis for the determination of the antioxidative efficacy is the so-called DPPH test, as described in Bünger et al. [Buenger, J., Ackermann, H., Jentzsch, A., Mehling, A., Pfizner, I., Reiffen, K.-A., Schroeder, K.-R., and Wollenweber U., An interlaboratory comparison of methods used to assess antioxidant potentials, Int. J. Cosm. Sci., 28 (2006) 1-12]. The anti-oxidative efficacy of [(7,8-dihydroxy-4-oxo-4H-chromen-3-yl)hydroxy-methyl]phosphonic acid is determined in the DPPH test. […] J. Cosm. Sci., 28 (2006), 1-12].
ABTS [2,2′-azinobis(3-ethylbenzothiazoline-6-sulfonic acid)] reacts with potassium peroxodisulfate by generating a stable free-radical cation which absorbs at 734 nm. The antioxidant measured reduces the free-radical cation and thus causes a weakening of the absorption capacity at 734 nm. The absorption is measured after a fixed time span of 6 minutes. The anti-oxidative potential of the substance measured is indicated as activity compared with trolox. The substance measured may be present dissolved in water or ethanol during the measurement.

O=c1c(C(O)P(=O)(O)O)coc2c(O)c(O)ccc12 (centres unmarked) [Example 1, [(7,8-dihydroxy-4-oxo-4H-chromen-3-yl)-hydroxymethyl]phosphonic acid]
antioxidative potential, activity compared with trolox (TEAC): 0.93

Cc1c(C)c2c(c(C)c1O)CCC(C)(C(=O)O)O2 (centres unmarked) [trolox, reference compound]
antioxidative potential, activity compared with trolox (TEAC): 1.0

Source: patent US8052963B2, “[(4-oxo-4H-chromen-3-yl)hydroxymethyl]- or [(4-oxo-4H-chromen-3-yl)methyl]phosphonic acid derivatives” (Merck Patent Gesellschaft mit beschrankter Haftung, priority 2006, dated 2011)
